Laboratory results: PubChem BioAssay AID1204 (EPA DSSTox, 2008)
Records with an inconclusive call do not appear. Active and inactive are the calls of the source.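 How the source made its calls: active means relative estrogen receptor binding affinity above 1E-5, where estradiol scores 100; inconclusive means weak binder, under half inhibition at top dose, or affinity below 1E-5; inactive means no binding seen, affinity zero.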

System: estrogen receptor (rat uterine cytosol)
Experiment: DSSTox (NCTRER) National Center for Toxicological Research Estrogen Receptor Binding Database;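 on relative binding affinity: ratio of estradiol IC50 over compound IC50 times 100 so estradiol equals 100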
Settings: rat uterine cytosol ER competitive binding, RBA; for relative binding affinity: active compounds read high
Source text: Researchers within FDA's National Center for Toxicological Research (NCTR) generated a database of experimental estrogen receptor binding results for the express purpose of developing improved QSAR models to predict ER binding affinities.The NCTR ER database is a structurally diverse set of natural, synthetic, and environmental estrogens covering most known estrogenic classes and spanning a wide range of biological activity. It represents the largest published ER binding database of same-assay results generated in a single laboratory. […] Information on the percent purity and purchasing source for all chemicals are not included in the DSSTox SDF, but can be obtained from the original NCTR ER Source database and Main Citations listed below. The main citation (Fang et al., 2001) surveys the NCTR ER database from a chemical class based, structure-activity relationship (SAR) perspective. Qualitative SAR characteristics of the NCTR ER database are discussed and a set of general hierarchical rules for identifying potential estrogens are presented. The DSSTox NCTRER SDF augments the original NCTR ER database with chemical class and SAR information abstracted from Fang et al. (2001). The DSSTox SDF file supplements the measured ER relative binding affinity for each chemical (ER_RBA) with chemical class assignment to one of 6 major estrogenic classes further divided into 20 subclasses (ChemClass_ERB), along with a qualitative activity measure, ActivityCategory_ER_RBA. A brief narrative SAR rationale pertaining to ER RBA patterns observed by Fang et al. (2001) for each of the 20 subclasses within the database are provided in the field, ActivityCategory_Rationale_ChemClass_ERB. The original NCTR ER database, from which the expanded DSSTox NCTRER was formed, is contained within a larger Endocrine Disruptor Knowledge Base (EDKB) accessible from the FDA Source Website. That website provides online access to a relational database comprised of in vitro and in vivo experimental data for about 2000 natural and synthetic compounds, much of this extracted from the literature and representing testing in many laboratories. Data are included for biological assays that measure estrogenic and androgenic activity. Estrogenic endpoints include in vitro assays for estrogen receptor competitive binding affinity, cell proliferation, and reporter-gene assays, and in vivo assays for uterotrophic activity (i.e., uterine weight gain and vaginal cornification). The database also contains a bibliography of over 1200 citations, many of which include abstracts.
Estrogen receptor relative binding affinity is determined using a competitive receptor binding assay as described in NCTRER Ref (Blair et al., 2000). Briefly, a chemical competes with radiolabeled E2 (i.e., estradiol) for binding to the ER in rat uterine cytosol and the concentration of chemical that causes 50% inhibition of E2 binding (i.e., IC50) is measured. The ER_RBA is calculated by dividing the IC50 of E2 (9X10-10M) by the IC50 of the competitor and multiplying by 100 (E2 RBA = 100). The validated assay tested 1nM E2 with concentrations of competitor ranging from 1nM to 1mM. The larger the ER_RBA values, the greater the binding affinity; ER_RBA > 100 means compound has greater binding affinity than natural ER ligand, E2. […] Activity Score is mapping of LOG_ER_RBA values (ER-RBA>1E-5), spanning activity range [MIN, MAX] onto Integer 20-100 Activity range, where 100 is highest potency and 20 is lowest active potency. If Activity Outcome is "active": Activity Score = 80 * INTEGER[(LOG_ER_RBA - MIN)/(MAX […] MIN)]. If Activity Outcome is "inconclusive" (i.e., slight binder): Activity Score = 5.

[1] = ChemClass_ERB: Diphenylmethanes Benzophenones
[2] = ChemClass_ERB: Diphenylmethanes DDTs
[3] = ChemClass_ERB: Steroids With aromatic A ring
[4] = ChemClass_ERB: Phytoestrogens Flavones
[5] = ChemClass_ERB: Phytoestrogens Chalconoids
[6] = ChemClass_ERB: Diphenylmethanes Diphenolalkanes
[7] = ChemClass_ERB: Steroids Without aromatic A ring

Cc1ccc2c(C)cccc2c1
outcome (ChemClass_ERB: Misc): inactive

Nc1ccc(/C=C/c2ccc(N)cc2)cc1
outcome (ChemClass_ERB: Misc): inactive

CCCCCCCOc1ccc(O)cc1
relative binding affinity (ChemClass_ERB: Phenols Alkyloxy): 0.00131%

CCc1c(-c2ccc(OC)cc2)c(=O)oc2cc(O)ccc12
relative binding affinity (ChemClass_ERB: Phytoestrogens Coumestans): 0.891%

O=C(c1ccccc1)c1ccc(O)cc1O
relative binding affinity [1]: 0.00245%

ClC1=C(Cl)[C@]2(Cl)[C@@H]3[C@@H]4C[C@@H]([C@H]5O[C@@H]45)[C@@H]3[C@@]1(Cl)C2(Cl)Cl
outcome (ChemClass_ERB: Misc): inactive

Nc1ccc(Cc2ccc(N)cc2)cc1
outcome (ChemClass_ERB: Misc): inactive

COc1ccc(C(c2ccc(OC)cc2)C(Cl)(Cl)Cl)cc1
outcome [2]: inactive

CCCOC(=O)c1ccc(O)cc1
relative binding affinity (ChemClass_ERB: Phenols Parabens): 0.0006%

C[C@]12CC[C@@H]3c4ccc(O)cc4CC[C@H]3[C@@H]1CCC2=O
relative binding affinity [3]: 7.24%

CN(C)c1ccc(Cc2ccc(N(C)C)cc2)cc1
outcome (ChemClass_ERB: Misc): inactive

c1ccc2c(c1)OCCOCCOc1ccccc1OCCOCCO2
outcome (ChemClass_ERB: Misc): inactive

O=c1cc(-c2ccccc2)oc2cc(O)cc(O)c12
outcome [4]: inactive

CCCCCCO
outcome (ChemClass_ERB: Misc): inactive

COc1ccccc1-c1cc(=O)c2cc(O)ccc2o1
outcome [4]: inactive

Clc1ccc(C(c2ccc(Cl)cc2)C(Cl)Cl)cc1
outcome [2]: inactive

O=C(/C=C/c1ccc(O)cc1)c1ccc(O)cc1O
relative binding affinity [5]: 0.055%

O=c1c(O)c(-c2ccc(O)c(O)c2)oc2cc(O)ccc12
relative binding affinity [4]: 0.00446%

CC/C(=C(/CC)c1ccc(O)cc1)c1ccc(O)cc1
relative binding affinity (ChemClass_ERB: DES Derivatives): 398%

O=c1c(-c2ccc(O)cc2)coc2cc(O[C@@H]3O[C@H](CO)[C@@H](O)[C@H](O)[C@H]3O)cc(O)c12
outcome (ChemClass_ERB: Phytoestrogens Isoflavones): inactive

Oc1ccc(Cl)cc1Cc1cc(Cl)ccc1O
relative binding affinity [6]: 0.0035%

COc1ccc(C(c2ccc(O)cc2)C(Cl)(Cl)Cl)cc1 (stereo not drawn)
relative binding affinity [2]: 0.129%

CC/C(=C(/c1ccc(OCCN(C)C)cc1)c1cccc(O)c1)c1ccccc1
relative binding affinity (ChemClass_ERB: DES Triphenylethylenes): 15.1%

COc1ccc2c(c1)CC[C@@H]1[C@@H]2CC[C@]2(C)[C@@H](O)[C@H](O)C[C@@H]12
relative binding affinity [3]: 0.0224%

CC/C(=C(/CC)c1ccc(OC)cc1)c1ccc(OC)cc1
relative binding affinity (ChemClass_ERB: DES Derivatives): 0.056%

O=c1cc(-c2ccccc2)oc2ccc(O)cc12
relative binding affinity [4]: 0.00038%

COc1ccc(C(=O)c2ccccc2O)c(O)c1
outcome [1]: inactive

C[C@]12C[C@H](O)[C@H]3[C@@H](CCC4=CC(=O)CC[C@@]43C)[C@@H]1CC[C@@H]2C(=O)CO
outcome [7]: inactive

C#C[C@]1(O)CC[C@H]2[C@@H]3CCc4cc(O)ccc4[C@H]3[C@@H](OC)C[C@@]21C
relative binding affinity [3]: 13.8%

CC(C)(C)c1cc(Cc2cc(C(C)(C)C)c(O)c(C(C)(C)C)c2)cc(C(C)(C)C)c1O
outcome [6]: inactive

CCNc1nc(Cl)nc(NCC)n1
outcome (ChemClass_ERB: Misc): inactive

CC(C)(c1ccc(O)cc1)c1ccc(O)cc1
relative binding affinity [6]: 0.0078%

O=c1c(O)c(-c2ccc(O)c(O)c2)oc2cc(O)cc(O)c12
outcome [4]: inactive

O=C(O)COc1cc(Cl)c(Cl)cc1Cl
outcome (ChemClass_ERB: Misc): inactive

CC/C(=C(/CC)c1ccc(OC)cc1)c1ccc(O)cc1
relative binding affinity (ChemClass_ERB: DES Derivatives): 20.4%

Nc1ccc(Oc2ccc(N)cc2)cc1
outcome (ChemClass_ERB: Misc): inactive

Oc1ccc(Cc2ccc(O)cc2)cc1
relative binding affinity [6]: 0.00095%

O=c1cc(-c2ccc(O)cc2)oc2ccc(O)cc12
relative binding affinity [4]: 0.151%

Oc1ccc(CCc2ccccc2)cc1
relative binding affinity (ChemClass_ERB: DES Hexestrol derivatives): 0.00204%

CC[C@@H]1c2ccc3cc(OC)ccc3c2CC[C@]1(C)C(=O)O
relative binding affinity (ChemClass_ERB: Misc): 0.00181%

O=C(/C=C/c1ccccc1)c1ccc(O)cc1
relative binding affinity [5]: 0.0037%

O=C(O)c1ccccc1C(c1ccc(O)cc1)c1ccc(O)cc1
relative binding affinity [6]: 0.00021%

CCCCCCCCCc1ccc(O)cc1
relative binding affinity (ChemClass_ERB: Phenols Alkyl): 0.0295%

CCOC(=O)/C=C/c1ccccc1
outcome (ChemClass_ERB: Misc): inactive

CNC(=O)Oc1cccc2c1OC(C)(C)C2
outcome (ChemClass_ERB: Misc): inactive

CC(C)CCC[C@@H](C)[C@H]1CC[C@H]2[C@@H]3CC=C4C[C@@H](O)CC[C@]4(C)[C@H]3CC[C@]12C
outcome [7]: inactive

CCCCN(C)C(=O)CCCCCCCCCC[C@@H]1Cc2cc(O)ccc2[C@H]2CC[C@]3(C)[C@@H](O)CC[C@H]3[C@H]12
relative binding affinity [3]: 14.4%
